Results as given in US20080039434A1, “Treatment of Interstitial Cystitis with Vitamin D Compounds” (BioXell S. p.A., priority 2004, published 2008).

What was measured:
[1] = test system: ovalbumin specific IgE; assay: Ova-specific IgE ELISA, allergic IC in mice; type: in vivo, mouse; conditions: 75 ug/kg oral vs vehicle; ovalbumin-sensitized BALB/c mice
Experimental: (§1) Mice (BALB/c, females 8 weeks old, weight 18-20 g, Charles River, Calco ITA) were sensitized by injecting 10 ug/mouse of chicken ovalbumin from Sigma (OVA, grade V) in the presence of 4 mg of alum (SERVA, Germany) by intraperitoneal injection, once a week for 4 weeks. This induces a sustained level of IgE detectable in serum.
(§2) One or two weeks after the last immunization boost, sensitized mice were anesthetized (1.5% Isoflurane) and then trans-urethrally catheterized (24 gauge, ¾ in.; Angiocath, Becton-Dickson). Slight digital pressure was applied the lower abdomen to drain the urine.
(§3) The urinary bladders were instilled with either 150 ul of either saline or OVA alone, (1 mg/150 ul) infused at a slow rate to avoid trauma and vesico-ureteral reflux and repeated twice within a 30-min interval with the syringe kept in place on the catheter for at least 30 min. Intravesical challenge was repeated 7-10 days after the first one with the same procedure.
Treatment Group: 10 mice were treated with oral vitamin D3 analogue (1-alpha-fluoro-25-hydroxy-16,23Ediene-26,27-bishomo-20-epi-cholecalciferol) Compound “B” for 14 days (daily dose of either 30 or 75 ug/kg). […]
Ova-specific IgE were measured according to the following procedure. […] Finally, 450 nm absorbance was recorded after the reaction was stopped.

[2] = test system: MMCP1 protein; assay: Serum level of mast-cell derived chymase MMCP1 protein, allergic IC in mice; type: in vivo, mouse
Experimental: as §1, §2, §3
Treatment Group: 10 mice were treated with oral vitamin D3 analogue (1-alpha-fluoro-25-hydroxy-16,23Ediene-26,27-bishomo-20-epi-cholecalciferol) Compound “B” for 14 days (daily dose of either 30 or 75 ug/kg).
(§4) An ethanol stock solution of Compound B (1 mg/ml) was dissolved in Miglyol vehicle at the appropriate concentration. Control animals received the vehicle containing the same amount of ethanol. Drug (or vehicle) treatment was carried out by daily gavage after weighing the animal. Drug solution was prepared calculating a final volume of 100 ul/10 grams body weight, and treatment was started on the day of the first intravesical ovalbumin challenge, maintained daily, but discontinued over the weekends, for 12 days total treatment. FIG. 7 illustrates the timeline of the experiment.
(§5) Experiments in Example 7 were performed according to the general procedures described previously in Example 6. Mice were challenged with saline (untreated) or ovalbumin (treatment with vehicle or one of Compounds C-I at a dosage indicated in Table 6 in ug/kg).

[3] = Calcemia assessment in allergic IC mice (colorimetric serum calcium assay); type: in vivo, mouse; design: serum calcium levels: dose or concentration left out as unconfirmed
Experimental: Serum calcemia was evaluated by a commercially available colorimetric assay (Calcium Dry-Fast, Sentinel CH. Italy). Briefly, 10 ul serum were added to 100 ul reaction solution prepared according to the manufacturer's procedure in a 96-wells plate. After 5 min incubation at RT samples were read at 570 nm with a spectrophotometer and the calcium levels were calculated in triplicate by using a standard reference as directed.

[4] = Body weight in allergic IC mice; type: in vivo, mouse; conditions: 75 ug/kg oral vs control animals; daily timepoints
Experimental: as §4

[5] = test system: MCPT2; assay: Taq-Man analysis of bladder mRNA, allergic IC in mice: MCPT2; type: in vivo, mouse; conditions: ovalbumin challenged; 30 and 75 ug/kg oral, dose dependent; pooled samples
Experimental: as §1
One or two weeks after the last immunization boost, sensitized mice were anesthetized (1.5% Isoflurane) and then trans-urethrally catheterized (24 gauge, ¾ in.; Angiocath, Becton-Dickson). Slight digital pressure was applied the lower abdomen to drain the urine. […]
Total RNA was extracted from one half of bladder by using RNeasy Mini kit (Qiagen), treated with DNase 1 (Qiagen) and reverse transcription performed with Reverse Transcription Reagent (Applied Biosystems) with Random Hexamers (according to the manufacturer's instructions). cDNA was synthesized from 1 ug of RNA. […] Reaction was run on an SDS 7000 (Applied Biosystems) instruments, with the following amplification program: 2′ at 50° C.; 10′ at 95° C.; 15″ at 95° C. and 1′ at 60° C. for 40 cycles; Cycle threshold (Ct) values were exported into Excel Worksheets for analysis and relative quantitations were performed using the ΔCt method. […]

[6] = test system: FcεR1α; assay: Taq-Man analysis of bladder mRNA, allergic IC in mice: FcεR1α; type: in vivo, mouse; conditions: ovalbumin challenged
Experimental: as §1, §2, §3, §4
(§6) Total RNA was extracted from one half of bladder by using RNeasy Mini kit (Qiagen), treated with DNase 1 (Qiagen) and reverse transcription performed with Reverse Transcription Reagent (Applied Biosystems) with Random Hexamers (according to the manufacturer's instructions). cDNA was synthesized from 1 ug of RNA. Real-Time PCR was performed in 96-well optical reaction plates (Applied Biosystems). For each sample we amplified both the target gene and the housekeeping gene (HPRT) in different wells (singleplex) and in duplicate. The amplification Master Mix was prepared according to the following protocol (volumes refer to a single well with a final volume of 40 ul/well)): 2× TaqMan® R Universal PCR Master Mix (Applied Biosystems, 4304437): 20 ul; 20× Assay target gene: 2 ul; H2O: 8 ul; cDNA: 10 ul. Reaction was run on an SDS 7000 (Applied Biosystems) instruments, with the following amplification program: 2′ at 50° C.; 10′ at 95° C.; 15″ at 95° C. and 1′ at 60° C. for 40 cycles; Cycle threshold (Ct) values were exported into Excel Worksheets for analysis and relative quantitations were performed using the ΔCt method. All primers used carried the FAM reporter.
as §5

[7] = test system: MMCP4; assay: Taq-Man analysis of bladder mRNA, allergic IC in mice: MMCP4; type: in vivo, mouse; conditions: ovalbumin challenged; 75 ug/kg oral; individual animals
Experimental: as §1, §2, §3, §4, §6, §5

[8] = test system: ovalbumin-challenged mouse bladder; assay: Blind histological analysis of bladder sections, allergic IC in mice; type: in vivo
Experimental: as §1, §2, §3, §4
Bladders were explanted from the animals, longitudinally divided in two moieties, one half was either immediately fixed in formalin (10% buffered) for at least 3 hrs or snap frozen in liquid nitrogen upon inclusion in OCT freezing medium (Tissue-Tek Sakura). For histological analysis, fixed bladders were further processed and finally paraffin embedded. Five um sections were serially cut then stained with GIEMSA (BDH, 20% solution, 3 hrs RT) and then de-stained in 0.1% acetic acid for 10 sec. After a clarification step in Xylene, slides were permanently mounted with Eukitt medium and analyzed by a pathologist in a blinded fashion in order to evaluate for inflammatory cell infiltrate, mast cell numbers, and the presence of interstitial edema. A semi-quantitative histological score was used, assigning: 1 for mild infiltrate, no edema; 2 for intermediate infiltration, little edema; and 3 for severe infiltration and edema.
as §5

[9] = test system: allergen-induced chronic bladder inflammation; assay: Efficacy ranking in the allergen-induced chronic bladder inflammation model of interstitial cystitis; type: in vivo, mouse; conditions: each compound at its tested dosage
Experimental: as §5
Summarizing all the results presented above in Example 7, we can conclude that these compounds can be ranked with respect to their efficacy in reducing several parameters measuring inflammation of the bladder in the allergen-induced chronic bladder inflammation model of interstitial cystitis.

[10] = 75 ug/kg oral vs vehicle, p<0.05
[11] = 75 ug/kg oral vs vehicle, p<0.01

Structure (SMILES) | ovalbumin specific IgE in serum [1] | serum levels of chymase MMCP1 protein [2, 10] | serum calcium level [3, 10] | calcemic levels relative to the toxicity threshold ([3]; 75 ug/kg oral, toxicity threshold 10.7 mg/dl in mice) | serum calcium levels ([3]; lower dosage, not shown) | body weight [4] | expression of inflammatory marker MCPT2 [5] | expression of inflammatory marker FcεR1α ([6]; 75 ug/kg oral, individual animals) | expression of inflammatory marker FcεR1α ([6]; 30 and 75 ug/kg oral, dose dependent, pooled samples) | expression of inflammatory marker MMCP4 [7] | edema in bladder sections ([8]; 75 ug/kg oral vs vehicle, p<0.001) | eosinophils in bladder sections [8, 11] | lymphocytes in bladder sections [8, 11] | mast cells in bladder sections [8, 10] | signs of edema in representative bladder slides ([8]; 75 ug/kg oral, FIG. 16, x50 magnification) | Efficacy ranking in reducing parameters of bladder inflammation [9] | serum level of the MMCP1 protein ([2]; ovalbumin challenged vs vehicle, oral ug/kg: A 0.1, E 0.3, F 30, F p<0.05, A, E p<0.001) | serum calcium levels relative to the vehicle treated control group ([3]; oral ug/kg: C 3, A 0.1, E 0.3, F 30, G 100, H 1, I 3, elevations p<0.001) | numbers of eosinophils in the bladder wall ([8]; 0.1 ug/kg oral vs vehicle, p<0.05)
C=C1/C(=C\C=C2/CCC[C@]3(C)C([C@@H](C)C/C=C/C(O)(CC)CC)=CC[C@@H]23)C[C@@H](O)C[C@@H]1F [Compound B, 1-alpha-fluoro-25-hydroxy-16,23E-diene-26,27-bishomo-20-epi-cholecalciferol] | no significant changes | significantly lower | small, but statistically significant increase | did not cause calcemic levels to rise above the toxicity threshold | No significant changes | no significant difference | significantly reduces | down-modulates | significantly reduces | down-modulates | completely resolved | significant reduction | significant reduction | significant reduction | no signs of edema | Compound E>Compound F>Compound B>Compound H>Compound I>Compound A>Compound A=Compound G |  |  | 
CC(=O)OC1C/C(=C/C=C2\CCC[C@]3(C)C(C(C)C/C=C\C(O)(C(F)(F)F)C(F)(F)F)=CCC23)C[C@@H](OC(C)=O)C1 (some centres unmarked) [Compound A, 1,3-Di-O-acetyl-1,25-dihydroxy-16,23Z-diene-26,27-hexafluoro-19-nor-cholecalciferol] |  |  |  |  |  |  |  |  |  |  |  |  |  |  |  | Compound E>Compound F>Compound B>Compound H>Compound I>Compound A>Compound A=Compound G | statistically significant reduction | no significant increase | significantly reduced numbers
